Reference: US6403626B1, “Benzimidazole derivatives” (Synaptic Pharmaceutical Corporation, priority 1994, dated 2002)
Where two headings read alike, the source gives them in different places.

What was measured:
[1] = target: T1, α1C Human Adrenergic Receptor (Homo sapiens, UniProt P35348); assay: Equilibrium competition binding, [3H] prazosin, membranes of transfected LM(tk-) cells
T1 construct: expressed in transfected cells; host or cells: LM(tk-) cells
T1 sequence (P35348 1-466): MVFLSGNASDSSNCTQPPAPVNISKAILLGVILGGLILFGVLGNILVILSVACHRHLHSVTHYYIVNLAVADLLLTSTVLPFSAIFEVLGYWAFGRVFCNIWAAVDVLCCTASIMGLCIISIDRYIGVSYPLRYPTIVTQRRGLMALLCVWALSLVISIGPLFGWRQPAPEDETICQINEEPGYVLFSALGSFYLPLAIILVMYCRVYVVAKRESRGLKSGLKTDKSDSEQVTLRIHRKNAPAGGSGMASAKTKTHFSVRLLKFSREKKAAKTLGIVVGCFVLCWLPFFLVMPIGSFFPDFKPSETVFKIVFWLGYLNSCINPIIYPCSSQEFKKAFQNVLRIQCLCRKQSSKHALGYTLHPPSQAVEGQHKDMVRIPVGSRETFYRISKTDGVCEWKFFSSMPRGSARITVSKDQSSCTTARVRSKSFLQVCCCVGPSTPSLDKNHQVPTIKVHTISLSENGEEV
Protocol: Binding and functional assays were performed using stably transfected human alpha adrenergic receptors. Equilibrium competition binding assays were performed with membrane preparations from cultured LM(tk-) cells stably transfected with the cloned human adrenoceptor subtypes except for α2b, which was expressed in Y-1 cells, using [^3H] prazosin for α1 receptors and [^3H] rauwolscine for α2 receptors.
Transfected cells from culture flasks were scraped into 5 ml of 5 mM Tris-HCl, 5 mM EDTA, pH 7.5, and lysed by sonication. The cell lysates were centrifuged at 1000 rpm for 5 min at 4° C., and the supernatant was centrifuged at 30,000×g for 20 min at 4° C. The pellet was suspended in 50 mM Tris-HCl, 1 mM MgCl2, and 0.1% ascorbic acid at pH 7.5. Binding of α2 antagonist [^3H] rauwolscine ([…]) to membrane preparations of LM(tk-) cells was done in a final volume of 0.25 ml and incubated at 37° C. for 20 min. Nonspecific binding was determined in the presence of 10 μM phentolamine. The reaction was stopped by filtration through GF/B filters using a cell harvester.
The construct involved ligation three partial overlapping fragments: a 5′ 0.6 kb HincII genomic clone, a central 1.8 EcoRI hippocampal cDNA clone, and a 3′ 0.6 Kb PstI genomic clone. The hippocampal cDNA fragment overlaps with the 5′ and 3′ genomic clones so that the HincII and PstI sites at the 5 and 3′ ends of the cDNA clone, respectively, were utilized for ligation. This full-length clone was cloned into the KpnI site of the expression vector, using the 5′ and 3′ KpnI sites of the fragment, derived from vector (i.e., pBluescript) and 3′-untranslated sequences, respectively. Stable cell lines were selected as described above.

[2] = target: T2, α1B Human Adrenergic Receptor (Homo sapiens, UniProt P35368); assay: as above
T2 construct: The entire coding region of α1B(1563 bp); expressed in transfected cells; host or cells: LM(tk-) cells
T2 sequence (P35368 1-520): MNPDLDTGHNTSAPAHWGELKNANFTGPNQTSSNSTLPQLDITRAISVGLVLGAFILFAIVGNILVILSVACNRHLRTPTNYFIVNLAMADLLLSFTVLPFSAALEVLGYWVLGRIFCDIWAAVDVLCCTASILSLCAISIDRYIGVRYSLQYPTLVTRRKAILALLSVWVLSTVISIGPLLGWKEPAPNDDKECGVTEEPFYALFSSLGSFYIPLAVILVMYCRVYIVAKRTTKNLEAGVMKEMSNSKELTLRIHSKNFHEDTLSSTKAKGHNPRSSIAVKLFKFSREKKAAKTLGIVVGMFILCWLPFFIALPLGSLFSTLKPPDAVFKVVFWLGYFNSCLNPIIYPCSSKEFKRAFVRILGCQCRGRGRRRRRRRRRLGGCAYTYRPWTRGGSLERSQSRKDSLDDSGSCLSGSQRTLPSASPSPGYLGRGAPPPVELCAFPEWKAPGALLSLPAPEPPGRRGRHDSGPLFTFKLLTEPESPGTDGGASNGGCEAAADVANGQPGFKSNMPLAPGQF

[3] = cloned human receptor, [3H] prazosin, read-out: pKi Alpha-1 C (converted)
[4] = cloned human receptor, [3H] prazosin, read-out: pKi Alpha-1 B (converted)
[5] = cloned human receptor, [3H] prazosin

**Q.** What does the source list for `c1nc2ccc(NC3=NCCN3)cc2[nH]1` [Example 1, 5-(2-Imidazolin-2-ylamino)Benzimidazole]?
**A.** Ki [1, 3]: 5250 nM; Ki [2, 4]: 24500 nM

**Q.** What does the source list for `Brc1c(NC2=NCCN2)ccc2nc[nH]c12` [Example 2, 4-Bromo-5-(2-imidazolin-2-ylamino)Benzimidazole]?
**A.** Ki [1]: 1700 nM; Ki [2]: 5890 nM

**Q.** With `Clc1c(NC2=NCCN2)ccc2nc[nH]c12` [Example 3, 4-Chloro-5-(2-imidazolin-2-ylamino)Benzimidazole] as the molecule, how does the Ki [1, 3] read?
**A.** 1910 nM

**Q.** And the Ki [2, 4]?
**A.** 8130 nM

**Q.** With `Cc1c(N=C2NCCN2)ccc2[nH]cnc12` [Example 4, 4-Methyl-5-(2-imidazolin-2-ylamino)Benzimidazole] as the molecule, how does the Ki [1, 3] read?
**A.** 724 nM

**Q.** What about the Ki [2, 4] of the same molecule?
**A.** 2750 nM

**Q.** `Ic1c(NC2=NCCN2)ccc2nc[nH]c12` [Example 5, 4-Iodo-5-(2-imidazolin-2-ylamino)Benzimidazole] was tested. Which Ki [1, 3] did it give?
**A.** 2240 nM

**Q.** What about the Ki [2, 4] of the same molecule?
**A.** 1820 nM

**Q.** With `CCCc1c(NC2=NCCN2)ccc2nc[nH]c12` [Example 7, 4-n-Propyl-5-(2-imidazolin-2-ylamino)Benzimidazole] as the molecule, how does the Ki [1, 3] read?
**A.** 2000 nM

**Q.** And the Ki [2, 4]?
**A.** 1230 nM

**Q.** Which Ki [1, 3] does the source give for `CCCCc1c(NC2=NCCN2)ccc2nc[nH]c12` [Example 8, 4-n-Butyl-5-(2-imidazolin-2-ylamino)Benzimidazole] here?
**A.** 2000 nM

**Q.** And the Ki [2, 4]?
**A.** 2630 nM

**Q.** `Cn1cnc2cc(NC3=NCCN3)ccc21` [Example 9, 1-Methyl-5-(2-imidazolin-2-ylamino)Benzimidazole] was tested. Which Ki [1, 3] did it give?
**A.** 6760 nM

**Q.** And the Ki [2, 4]?
**A.** 13500 nM

**Q.** With `Cn1cnc2c(Br)c(NC3=NCCN3)ccc21` [Example 10, 1-Methyl-4-bromo-5-(2-imidazolin-2-ylamino)Benzimidazole] as the molecule, how does the Ki [1, 3] read?
**A.** 851 nM

**Q.** And the Ki [2, 4]?
**A.** 3800 nM

**Q.** Which results are given for `Cn1cnc2ccc(NC3=NCCN3)c(Br)c21` [Example 12, 3-Methyl-4-bromo-5-(imidazolin-2-ylamino)Benzimidazole]?
**A.** pKi Alpha-1 C [1, 5]: 6.46; pKi Alpha-1 B [2, 5]: 6.46

**Q.** For `COc1ccc(Cn2cnc3c(Br)c(NC4=NCCN4)ccc32)cc1` [Example 36, 1-(4-Methoxybenzyl)-4-bromo-5-(2-imidazolin-2-ylamino)Benzimidazole], which Ki [1] is on record?
**A.** 6460 nM

**Q.** What about the Ki [2] of the same molecule?
**A.** 11000 nM

**Q.** What does the source list for `OCCn1cnc2c(Br)c(NC3=NCCN3)ccc21` [Example 38, 1-(2-Hydroxyethyl)-4-bromo-5-(2-imidazolin-2-ylamino)Benzimidazole]?
**A.** Ki [1]: 6760 nM; Ki [2]: 17400 nM

**Q.** `Cc1nc2ccc(NC3=NCCN3)c(Br)c2[nH]1` [Example 42, 2-Methyl-4-bromo-5-(2-imidazolin-2-ylamino)Benzimidazole] was tested. Which Ki [1, 3] did it give?
**A.** 8130 nM

**Q.** What about the Ki [2, 4] of the same molecule?
**A.** 8510 nM

**Q.** What does the source list for `CCc1nc2ccc(NC3=NCCN3)c(Br)c2[nH]1` [Example 43, 2-Ethyl-4-bromo-5-(2-imidazolin-2-ylamino)Benzimidazole]?
**A.** Ki [1, 3]: 2140 nM; Ki [2, 4]: 6920 nM

**Q.** How did the Ki [1, 3] turn out when `CC(C)c1nc2ccc(NC3=NCCN3)c(Br)c2[nH]1` [Example 44, 2-Isopropyl-4-bromo-5-(2-imidazolin-2-ylamino)Benzimidazole] was run?
**A.** 3090 nM

**Q.** What about the Ki [2, 4] of the same molecule?
**A.** 5890 nM

**Q.** `CC(C)(C)c1nc2ccc(NC3=NCCN3)c(Br)c2[nH]1` [Example 45, 2-tert-Butyl-4-bromo-5-(2-imidazolin-2-ylamino)Benzimidazole] was tested. Which Ki [1, 3] did it give?
**A.** 2190 nM

**Q.** What about the Ki [2, 4] of the same molecule?
**A.** 11500 nM

**Q.** What does the source list for `FC(F)(F)c1nc2ccc(NC3=NCCN3)c(Br)c2[nH]1` [Example 46, 2-Trifluoromethyl-4-bromo-5-(2-imidazolin-2-ylamino)Benzimidazole]?
**A.** Ki [1, 3]: 10700 nM; Ki [2, 4]: 28200 nM

**Q.** Which results are given for `Brc1c(NC2=NCCN2)ccc2nc(C(c3ccccc3)c3ccccc3)[nH]c12` [Example 48, 2-Diphenylmethyl-4-bromo-5-(2-imidazolin-2-ylamino)Benzimidazole]?
**A.** Ki [1, 3]: 120 nM; Ki [2, 4]: 49 nM

**Q.** Which Ki [1, 3] does the source give for `Brc1cc2nc[nH]c2c(Br)c1NC1=NCCN1` [Example 50, 4,6-Dibromo-5-(2-imidazolin-2-ylamino)Benzimidazole] here?
**A.** 776 nM

**Q.** What about the Ki [2, 4] of the same molecule?
**A.** 166 nM

**Q.** Which results are given for `Clc1cc(NC2=NCCN2)cc2[nH]cnc12` [Example 53, 7-Chloro-5-(2-imidazolin-2-ylamino)Benzimidazole]?
**A.** Ki [1, 3]: 1000 nM; Ki [2, 4]: 1910 nM

**Q.** Which results are given for `CCCCc1cc(NC2=NCCN2)cc2[nH]cnc12` [Example 56, 7-Butyl-5-(2-imidazolin-2-ylamino)Benzimidazole]?
**A.** Ki [1, 3]: 589 nM; Ki [2, 4]: 5130 nM

**Q.** `Clc1cc(NC2=NCCN2)c(Br)c2[nH]cnc12` [Example 60, 4-Bromo-7-chloro-5-(2-imidazolin-2-ylamino)Benzimidazole] was tested. Which Ki [1, 3] did it give?
**A.** 479 nM

**Q.** What about the Ki [2, 4] of the same molecule?
**A.** 316 nM
